pIC50: −log10 of the molar value.
Experiments:
[1] = biological target: T1, Potassium channel subfamily K member 2 (Rattus norvegicus, UniProt Q920B6); assay: Inhibition of rat TREK1 expressed in CHO cells assessed as reversible current depression; type: cell-based
T1 sequence (Q920B6 whole entry): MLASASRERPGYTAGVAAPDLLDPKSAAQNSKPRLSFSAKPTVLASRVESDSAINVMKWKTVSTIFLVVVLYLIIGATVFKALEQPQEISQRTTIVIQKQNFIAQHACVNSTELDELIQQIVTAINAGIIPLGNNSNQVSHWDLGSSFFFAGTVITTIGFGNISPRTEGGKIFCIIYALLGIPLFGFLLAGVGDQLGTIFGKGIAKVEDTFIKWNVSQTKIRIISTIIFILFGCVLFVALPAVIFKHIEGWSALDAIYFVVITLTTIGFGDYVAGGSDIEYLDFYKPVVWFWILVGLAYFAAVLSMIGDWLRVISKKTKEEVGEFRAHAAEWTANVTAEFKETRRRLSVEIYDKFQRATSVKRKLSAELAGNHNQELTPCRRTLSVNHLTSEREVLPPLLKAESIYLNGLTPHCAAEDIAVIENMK

[2] = biological target: T2, Potassium channel subfamily K member 2 (Rattus norvegicus) (UniProt Q920B6); conditions: CHO, 10 uM
T2 sequence (whole entry): T1 sequence (Q920B6 whole entry)
Description: Inhibition of rat TREK1 expressed in CHO cells assessed as reversible current depression at 10 uM

[3] = biological target: T3, Potassium channel subfamily K member 2 (Homo sapiens, UniProt O95069); assay: Inhibition of human TREK1 expressed in oocytes assessed as reversible current depression; type: cell-based
T3 sequence (O95069 whole entry): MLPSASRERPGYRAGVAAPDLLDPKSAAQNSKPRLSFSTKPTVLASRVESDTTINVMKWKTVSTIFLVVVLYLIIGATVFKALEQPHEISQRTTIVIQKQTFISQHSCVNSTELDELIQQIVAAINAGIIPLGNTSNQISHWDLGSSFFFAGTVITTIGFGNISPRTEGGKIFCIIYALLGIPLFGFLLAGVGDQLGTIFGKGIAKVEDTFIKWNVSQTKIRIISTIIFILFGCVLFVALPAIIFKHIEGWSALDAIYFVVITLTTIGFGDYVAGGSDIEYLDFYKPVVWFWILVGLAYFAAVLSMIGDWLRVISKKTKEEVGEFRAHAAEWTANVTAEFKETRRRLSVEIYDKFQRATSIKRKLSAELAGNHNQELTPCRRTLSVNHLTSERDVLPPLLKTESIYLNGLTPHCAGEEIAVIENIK

[4] = biological target: T3, Potassium channel subfamily K member 2; assay: Inhibition of human TREK1 expressed in HEK293 cells assessed as reduction in channel currents; type: cell-based
[5] = biological target: T4, Potassium channel subfamily K member 10 (Homo sapiens, UniProt P57789); assay: Inhibition of TREK2 (unknown origin) expressed in oocytes assessed as reduction in channel currents; type: cell-based
T4 sequence (P57789 whole entry): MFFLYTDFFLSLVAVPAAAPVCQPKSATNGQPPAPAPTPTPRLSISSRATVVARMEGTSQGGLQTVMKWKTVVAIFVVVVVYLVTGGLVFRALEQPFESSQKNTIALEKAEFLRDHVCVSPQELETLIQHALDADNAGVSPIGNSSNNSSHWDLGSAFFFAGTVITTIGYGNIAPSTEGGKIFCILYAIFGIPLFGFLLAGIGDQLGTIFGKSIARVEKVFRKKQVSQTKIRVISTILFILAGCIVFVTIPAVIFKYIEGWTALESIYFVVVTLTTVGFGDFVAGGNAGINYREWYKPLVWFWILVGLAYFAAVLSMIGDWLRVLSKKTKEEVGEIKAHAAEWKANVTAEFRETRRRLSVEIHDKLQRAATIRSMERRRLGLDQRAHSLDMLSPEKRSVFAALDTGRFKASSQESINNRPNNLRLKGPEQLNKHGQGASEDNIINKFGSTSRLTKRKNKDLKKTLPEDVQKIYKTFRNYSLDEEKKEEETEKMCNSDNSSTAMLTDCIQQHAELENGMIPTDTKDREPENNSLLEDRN

[6] = biological target: T4, Potassium channel subfamily K member 10; assay: Inhibition of TREK2 (unknown origin) expressed in HEK293 cells assessed as reduction in channel currents; type: cell-based

Row | pIC50 [1] | inhibition [2] [%] | pIC50 [3] | pIC50 [4] | pIC50 [5] | pIC50 [6] | SMILES
1 | 7.22 | 70 |  |  |  |  | CCCC[C@@H]1OC(=O)c2ccccc21 [(3S)-BUTYLPHTHALIDE]
2 |  |  | 4.69 | 5.80 | 4.62 | 5.12 | COc1ccccc1OCCNCC(O)COc1cccc2[nH]c3ccccc3c12 (stereo unspecified) [CARVEDILOL]

From ChEMBL document CHEMBL3817738, “Perspectives on the Two-Pore Domain Potassium Channel TREK-1 (TWIK-Related K(+) Channel 1). A Novel Therapeutic Target?” (J Med Chem, 2016)
